Test results published in US12371436B2, “Substituted benzodiazoliums as ENaC inhibitors” (ENTERPRISE THERAPEUTICS LIMITED, priority 2016, dated 2025).

Biological target: T1, ENaC (Homo sapiens, UniProt P37088+P51168+P51170)
T1 construct: host or cells: primary human bronchial epithelial cells (HBECs) differentiated at air-liquid interface
T1 sequence (P37088 1-669): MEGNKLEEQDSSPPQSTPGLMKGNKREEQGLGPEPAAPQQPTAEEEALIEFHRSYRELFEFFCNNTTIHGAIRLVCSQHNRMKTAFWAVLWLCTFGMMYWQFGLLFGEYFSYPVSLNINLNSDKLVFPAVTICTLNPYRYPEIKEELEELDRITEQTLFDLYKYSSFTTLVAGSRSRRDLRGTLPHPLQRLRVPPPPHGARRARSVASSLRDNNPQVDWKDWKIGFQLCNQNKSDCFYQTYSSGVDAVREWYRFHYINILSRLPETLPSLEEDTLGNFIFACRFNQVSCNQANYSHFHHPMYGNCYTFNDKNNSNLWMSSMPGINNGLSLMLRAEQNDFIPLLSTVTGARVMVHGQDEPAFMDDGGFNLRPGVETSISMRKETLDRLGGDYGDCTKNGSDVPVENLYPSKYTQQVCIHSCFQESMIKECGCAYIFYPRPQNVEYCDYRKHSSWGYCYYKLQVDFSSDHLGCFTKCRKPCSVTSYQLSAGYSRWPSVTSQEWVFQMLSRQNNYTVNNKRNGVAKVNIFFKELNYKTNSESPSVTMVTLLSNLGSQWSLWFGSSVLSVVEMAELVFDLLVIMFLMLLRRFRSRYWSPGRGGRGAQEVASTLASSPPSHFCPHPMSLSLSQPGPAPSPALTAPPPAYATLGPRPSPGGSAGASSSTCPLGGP
T1 sequence (P51168 1-640): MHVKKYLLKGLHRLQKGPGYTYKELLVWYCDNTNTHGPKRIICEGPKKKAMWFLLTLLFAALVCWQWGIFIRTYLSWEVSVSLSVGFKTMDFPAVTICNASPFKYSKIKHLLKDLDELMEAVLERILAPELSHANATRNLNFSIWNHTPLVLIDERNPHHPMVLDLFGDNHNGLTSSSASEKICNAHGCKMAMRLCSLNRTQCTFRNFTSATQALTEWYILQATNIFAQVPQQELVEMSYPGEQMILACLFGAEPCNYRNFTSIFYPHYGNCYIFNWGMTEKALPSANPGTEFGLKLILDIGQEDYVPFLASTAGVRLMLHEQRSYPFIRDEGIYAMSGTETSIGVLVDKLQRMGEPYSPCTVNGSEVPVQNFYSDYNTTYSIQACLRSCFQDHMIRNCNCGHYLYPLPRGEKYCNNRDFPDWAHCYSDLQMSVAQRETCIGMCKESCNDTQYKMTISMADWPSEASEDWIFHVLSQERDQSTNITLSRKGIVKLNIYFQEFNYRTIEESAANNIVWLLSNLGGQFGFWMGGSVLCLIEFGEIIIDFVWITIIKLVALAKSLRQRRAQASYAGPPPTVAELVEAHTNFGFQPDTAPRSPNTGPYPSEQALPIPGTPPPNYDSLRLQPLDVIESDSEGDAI
T1 sequence (P51170 1-649): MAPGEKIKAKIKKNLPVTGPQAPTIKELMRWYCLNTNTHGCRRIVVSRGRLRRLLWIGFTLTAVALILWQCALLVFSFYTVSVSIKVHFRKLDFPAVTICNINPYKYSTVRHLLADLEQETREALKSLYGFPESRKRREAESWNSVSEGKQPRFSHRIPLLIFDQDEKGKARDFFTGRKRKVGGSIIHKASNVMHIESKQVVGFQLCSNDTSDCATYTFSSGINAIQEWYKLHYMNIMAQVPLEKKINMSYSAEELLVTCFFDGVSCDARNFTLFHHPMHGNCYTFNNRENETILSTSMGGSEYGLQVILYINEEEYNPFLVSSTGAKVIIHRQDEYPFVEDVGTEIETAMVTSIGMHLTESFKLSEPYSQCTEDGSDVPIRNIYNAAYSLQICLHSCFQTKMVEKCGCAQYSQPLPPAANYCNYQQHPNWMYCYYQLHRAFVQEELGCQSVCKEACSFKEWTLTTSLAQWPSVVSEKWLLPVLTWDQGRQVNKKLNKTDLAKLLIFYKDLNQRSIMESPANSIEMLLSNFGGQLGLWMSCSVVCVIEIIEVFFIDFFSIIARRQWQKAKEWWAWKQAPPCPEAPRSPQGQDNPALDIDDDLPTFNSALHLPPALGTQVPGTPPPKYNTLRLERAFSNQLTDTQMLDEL
Assay: Short circuit current assay to determine ENaC blocker potency in human bronchial epithelial cells
Format: cell-based
Settings: 50% inhibition of total amiloride-sensitive ISC, apical addition, read-out: Averages.ENaC IC50 (nM) Avg
Experimental: Example 68—Short circuit current assay to determine ENaC blocker potency in human bronchial epithelial cells
Human bronchial epithelial cells (HBECs) (Lonza, UK) were cultured using a modification of the method described by Coote et al, (2008). Cells were seeded into plastic T-75 flasks and grown in Bronchial Epithelial Cell Growth Medium (BEGM) (Lonza, UK) supplemented with bovine pituitary extract (52 ng/mL), hydrocortisone (0.5 μg/mL), human recombinant Epidermal Growth Factor (0.5 ng/mL), epinephrine (0.5 ng/mL), transferrin (10 ng/mL), insulin (5 ng/mL), retinoic acid (0.1 ng/mL), triiodothyronine (6.5 ng/mL), gentamycin (50 μg/mL) and amphotericin-B (50 ng/mL). Medium was changed every 48 hours until cells were 90% confluent. Cells were then passaged and seeded (8.25×10^5 cells/insert) onto polycarbonate Snapwell™ inserts (Costar, UK) in differentiation media containing 50% DMEM in BGEM with the same supplements as above but without triiodothyronine and a final retinoic acid concentration of 50 nM (all-trans retinoic acid; Sigma-Aldrich, UK). Cells were maintained submerged for the first 7 days in culture after which time they were exposed to an apical air interface for the remainder of the culture period. From the first day of establishment of an ALI, HBEC were fed with a DMEM:HAMS F-12 (1:1) media containing 2% Ultroser G (Pall BioSepra, France) with gentamycin (50 μg/mL) and amphotericin B (50 ng/mL). Cells were used for short-circuit current assay between days 14-21 after the establishment of the ALI. At all stages of culture, cells were maintained at 37° C. in 5% CO2 in an air incubator.
Short-Circuit Current (ISC) Measurements
Snapwell inserts were mounted in Costar Vertical Diffusion Chambers (Costar, UK) and were bathed with continuously gassed Ringer solution (5% CO2 in O2; pH 7.4) maintained at 37° C. containing (in mM): 120 NaCl, 25 NaHCO3, 3.3 KH2PO4, 0.8 K2HPO4, 1.2 CaCl2, 1.2 MgCl2 and 10 glucose. The solution osmolarity was always between 280-300 mOsm/kg H2O for all physiological salt solutions used. Cells were voltage clamped to 0 mV (model EVC4000, WPI). Transepithelial resistance (RT) was measured by applying a 2 mV pulse at 30 s intervals and calculating RT by Ohm's law. Data were recorded using a PowerLab workstation (ADlnstruments, UK).
ENaC blocker compounds were added to the apical chamber from a 1000-fold stock solution (prepared in DMSO) to achieve a cumulative concentration response in terms of the inhibition of the basal ISC. At the completion of the concentration response, a supra-maximal concentration of amiloride (10 μM) was added. The concentration of test compound that induced a 50% inhibition of the total amiloride-sensitive ISC (IC50) was calculated using GraphPad Prism v6.05. The results are presented in Table 2, from which it can be seen that the compounds of the present invention have ENaC inhibiting activity.

Row | IC50 [nM] | Compound
1 | 3 | CCn1c(CNC(=O)c2nc3cc[nH]c3nc2N)[n+](CC)c2ccc(OCCNC(=N)N)cc21 [Example 32, 2-[({3-amino-5H-pyrrolo[2,3-b]pyrazin-2-yl}formamido)methyl]-6-(2-carbamimidamidoethoxy)-1,3-diethyl-1H-1,3-benzodiazol-3-ium]
2 | 3 | CCn1c(CNC(=O)c2nc3cc[nH]c3nc2N)[n+](CC)c2ccc(CCCNC(=N)N)cc21 [Example 33, 2-[({3-amino-5H-pyrrolo[2,3-b]pyrazin-2-yl}formamido)methyl]-6-(3-carbamimidamidopropyl)-1,3-diethyl-1H-1,3-benzodiazol-3-ium]
3 | 160 | CCn1c(CNC(=O)c2nc3cc[nH]c3nc2N)[n+](CC)c2ccc(C(=O)O)cc21 [Example 34, 2-[({3-amino-5H-pyrrolo[2,3-b]pyrazin-2-yl}formamido)methyl]-6-carboxy-1,3-diethyl-1H-1,3-benzodiazol-3-ium]
4 | 15 | CCn1c(CNC(=O)c2nc3cc[nH]c3nc2N)[n+](CC)c2ccc(C(=O)NCCCN)cc21 [Example 39, 2-[({3-amino-5H-pyrrolo[2,3-b]pyrazin-2-yl}formamido)methyl]-6-[(3-aminopropyl)carbamoyl]-1,3-diethyl-1H-1,3-benzodiazol-3-ium]
5 | 7 | CCn1c(CNC(=O)c2nc3cc[nH]c3nc2N)[n+](CC)c2ccc(C(=O)NC3CCNCC3)cc21 [Example 40, 2-[({3-amino-5H-pyrrolo[2,3-b]pyrazin-2-yl}formamido)methyl]-1,3-diethyl-6-[(piperidin-4-yl)carbamoyl]-1H-1,3-benzodiazol-3-ium]
6 | 11 | CCn1c(CNC(=O)c2nc3cc[nH]c3nc2N)[n+](CC)c2ccc(C(=O)N3CCC(N)CC3)cc21 [Example 41, 2-[({3-amino-5H-pyrrolo[2,3-b]pyrazin-2-yl}formamido)methyl]-6-(4-aminopiperidine-1-carbonyl)-1,3-diethyl-1H-1,3-benzodiazol-3-ium]
7 | 10 | CCn1c(CNC(=O)c2nc3cc[nH]c3nc2N)[n+](CC)c2ccc(C(=O)NCCN3CCC(N)CC3)cc21 [Example 42, 2-[({3-amino-5H-pyrrolo[2,3-b]pyrazin-2-yl}formamido)methyl]-6-{[2-(4-aminopiperidin-1-yl)ethyl]carbamoyl}-1,3-diethyl-1H-1,3-benzodiazol-3-ium]
8 | 51 | CCn1c(CNC(=O)c2nc3cc[nH]c3nc2N)[n+](CC)c2ccc(OCCN(C[C@H](O)[C@@H](O)[C@H](O)[C@H](O)CO)C[C@H](O)[C@@H](O)[C@H](O)[C@H](O)CO)cc21 [Example 43, 2-[({3-amino-5H-pyrrolo[2,3-b]pyrazin-2-yl}formamido)methyl]-5-(2-{bis[(2S,3R,4R,5R)-2,3,4,5,6-pentahydroxyhexyl]amino}ethoxy)-1,3-diethyl-1H-1,3-benzodiazol-3-ium]
9 | 21 | CCn1c(CNC(=O)c2nc3cc[nH]c3nc2N)[n+](CC)c2ccc(OCCCN(C[C@H](O)[C@@H](O)[C@H](O)[C@H](O)CO)C[C@H](O)[C@@H](O)[C@H](O)[C@H](O)CO)cc21 [Example 44, 2-[({3-amino-5H-pyrrolo[2,3-b]pyrazin-2-yl}formamido)methyl]-5-(3-{bis[(2S,3R,4R,5R)-2,3,4,5,6-pentahydroxyhexyl]amino}propoxy)-1,3-diethyl-1H-1,3-benzodiazol-3-ium]
10 | 14 | CCn1c(CNC(=O)c2nc3cc[nH]c3nc2N)[n+](CC)c2cc(CCCN(C[C@H](O)[C@@H](O)[C@H](O)[C@H](O)CO)C[C@H](O)[C@@H](O)[C@H](O)[C@H](O)CO)ccc21 [Example 45, 2-[({3-amino-5H-pyrrolo[2,3-b]pyrazin-2-yl}formamido)methyl]-5-(3-{bis[(2S,3R,4R,5R)-2,3,4,5,6-pentahydroxyhexyl]amino}propyl)-1,3-diethyl-1H-1,3-benzodiazol-3-ium]

Row | Compound | IC50 [nM]
11 | CCn1c(CNC(=O)c2nc3cc[nH]c3nc2N)[n+](CC)c2ccc(C(=O)NCCCNC(=O)OC(C)(C)C)cc21 [Example 35, 2-[({3-amino-5H-pyrrolo[2,3-b]pyrazin-2-yl}formamido)methyl]-6-[(3-{[(tert-butoxy)carbonyl]amino}propyl)carbamoyl]-1,3-diethyl-1H-1,3-benzodiazol-3-ium formic acid] | 5
12 | CCn1c(CNC(=O)c2nc3cc[nH]c3nc2N)[n+](CC)c2ccc(C(=O)NC3CCN(C(=O)OC(C)(C)C)CC3)cc21 [Example 36, 2-[({3-amino-5H-pyrrolo[2,3-b]pyrazin-2-yl}formamido)methyl]-6-({1-[(tert-butoxy)carbonyl]piperidin-4-yl}carbamoyl)-1,3-diethyl-1H-1,3-benzodiazol-3-ium] | 3
13 | CCn1c(CNC(=O)c2nc3cc[nH]c3nc2N)[n+](CC)c2ccc(C(=O)NCCN3CCC(NC(=O)OC(C)(C)C)CC3)cc21 [Example 38, 2-[({3-amino-5H-pyrrolo[2,3-b]pyrazin-2-yl}formamido)methyl]-6-{[2-(4-{[(tert-butoxy)carbonyl]amino}piperidin-1-yl)ethyl]carbamoyl}-1,3-diethyl-1H-1,3-benzodiazol-3-ium] | 9
